Results published in US20250032624A1, “SMALL MOLECULE DEGRADATION METHODS FOR TREATING ALS/FTD” (University of Florida Research Foundation, Incorporated, priority 2021, published 2025).

Columns and labels:
[1] = system: C9orf72 transcript degradation (RNase L, hRRP6, XRN1, XRN2); assay: siRNA knock-down co-treatment experiments in c9ALS/FTD iPSCs (RT-qPCR); format: cell-based, human
Method: iPSCs were cultured as described in the “Cell Culture,” section. Briefly, iPSCs were plated into 6-well Matrigel coated plates and treated with compound and siRNA for four days. On day one, fresh media was added to the cells and siRNAs were transfected using Lipofectamine RNAiMax (Life Technologies), following the manufacturer's protocol. Cells were incubated for 1 hour at 37° C. and then compound was added to a final concentration of 50 nM (DMSO 0.1% (v/v)). Cells were incubated for 48 h, then media was replaced and the siRNA re-transfected. Following a 1 hour incubation, cells were treated with compound and then incubated for another 48 hours. After a total of 96 hours of treatment, RNA was extracted and RT-qPCR was performed following the protocol outline in the “Measuring Levels of C9orf72 and C9orf72 Variants by RT-qPCR,” section.

r(G4C2)8 [2] = assay: In vitro RNase L-mediated cleavage of 32P-labeled r(G4C2)8, gel analysis; format: biochemical; conditions: 10 μM and 20 μM compound, constant RNase L
Method: The 5′ end of r(G4C2)8 (SEQ ID NO: 1) (a model of r(G4C2)^exp) was radiolabeled with ^32P and purified on a denaturing polyacrylamide gel (15%), as previously described^31,32. After purification, labeled RNA (25 nM) was folded in 1×RNase L buffer (25 mM Tris-HCl, pH 7.4, and 100 mM NaCl) for 5 minutes at 95° C. The folded RNA was cooled to room temperature and 2-mercaptoethanol (7 mM final concentration), ATP (50 μM final concentration), and MgCl2 (10 mM final concentration) were added to the solution. Dilutions of compound in the folded RNA solution were then made and incubated for 15 minutes at room temperature. After the incubation, RNase L was added to a final concentration 50 nM. Samples were incubated at 37° C. overnight. Cleavage fragments were then separated on a denaturing 15% polyacrylamide gel, imaged by autoradiography (Typhoon FLA 9500), and quantified using the QuantityOne software (BioRad). All experiments were performed in duplicate.

[3] = system: RAN translation of r(G4C2)66; assay: RAN translation assay in transfected HEK293T cells; format: cell-based; conditions: read-out: IC50 of GFP signal (RAN translation)
Method: FIG. 8A is a schematic of co-transfection of a No ATG-d(G4C2)66-GFP (SEQ ID NO: 45) plasmid and an ATG-mCherry plasmid into HEK293T cells allows for RAN translation to be measured based on the GFP signal. The mCherry signal measures canonical translation. […] Error bars represent SD.
HEK293T cells were cultured according to the methods described above. After reaching ˜80% confluency, HEK293T cells were batch-transfected, according to the manufacturer's protocol, in 100 mm dishes using the Lipofectamine 3000 transfection system (Thermo Fischer) for 5 hours with […] of a plasmid encoding r(G4C2)66-no ATG-nano-luciferase and 1 μg of a plasmid encoding SV40-Firefly luciferase (Life Technologies). Cells were seeded into a 384-well plate and incubated overnight. Compounds were treated in <0.1% DMSO final concentration for 24 hours. RAN and canonical translation were measured using a Dual-Luciferase® Reporter Assay System (Promega) following the manufacturer's protocol. Experiments were performed as biological triplicates (n=3). […] in untransfected cells were measured to determine the background signal.

r(G4C2)8 [4] = assay: Affinity by microscale thermophoresis (MST), r(G4C2)8; format: binding
Method: Affinity measurements were performed by MST using a Monolith NT.115 system (NanoTemper Technologies) with 5′-Cy5-labeled r(G4C2)8 (SEQ ID NO: 1), 5′-Cy5-labeled d(G4C2)8 (SEQ ID NO: 1), and 5′-Cy5-labeled base pair control r(G2C2)4GAAA(G2C2)4 (SEQ ID NO: 49). All oligos were deprotected according to the manufacturer's recommended protocol. Samples were prepared as previously described^30. Briefly, RNA or DNA (5 nM) was folded in 1×MST Buffer (8 mM Na2HPO4, 185 mM NaCl, 1 mM EDTA) by heating at 95° C. for 5 minutes and slowly cooling to room temperature. Tween-20 was then added to a final concentration of 0.05% (v/v). Serial dilutions of compound in 1×MST Buffer containing 5 nM folded nucleic acid were then carried out to yield the desired compound concentrations. Samples were incubated for 90 minutes at room temperature and then loaded into premium capillaries (NanoTemper Technologies). The following parameters were used on the Monolith NT.115 system: 10% LED, 20-80% MST power, Laser-On time=30 s, Laser-Off time=5 seconds. Fluorescence was detected using excitation wavelengths of 605-645 nm and emission wavelengths of 680-685 nm. The resulting data were analyzed by thermophoresis analysis and fit using the quadratic binding equation in the MST analysis software (NanoTemper Technologies). The dissociation constant was determined using Equation 1. […]

[5] = system: induced pluripotent stem cells (iPSCs); assay: Cell viability in iPSCs; format: cell-based, human; conditions: doses up to 1 μM
Method: Patient-derived LCLs were seeded overnight in 96-well plates (˜10^4 cells/well) and treated with compounds for 96 hours. Cell viability was measured using the CellTiter-Fluor™ Cell Viability Assay (Promega) per the manufacturer's protocol. iPSC cell viability was measured by seeding cells in Matrigel-coated 6-well plates with Basal medium (iPSC maintenance described above). After overnight incubation, the medium was replaced with fresh medium containing compounds diluted in 0.1% DMSO. Cells were treated with compound for 96 hours. Cell viability was measured using the AlamarBlue™ Cell Viability Reagent (DAL1025, Thermo Fisher Scientific) per the manufacturer's protocol. iPSN cell viability was measured by […]

[6] = 20 nM hRRP6-targeting siRNA, 50 nM compound

CCOC(=O)C1=C(Nc2ccccc2)S/C(=C\c2ccc(OCCOCCOCCOCCNC(=O)CCCOc3ccc4c(c3)c3cc5c(C(=O)N[C@H](C)CN(C)C)nccc5c(C)c3n4C)c(O)c2)C1=O [ALS Compound Formula I]
intron 1 and exon 2-3 degradation under RNase L knock-down ([1]; 20 nM RNase L-targeting siRNA, 50 nM compound): ablation of both intron 1 and exon 2-3 degradation | intron 1 decay and C9orf72 cleavage under XRN1 knock-down ([1]; 20 nM XRN1-targeting siRNA, 50 nM compound): ablation of intron 1 decay and C9orf72 cleavage | intron 1 decay and C9orf72 cleavage under XRN2 knock-down ([1]; 20 nM XRN2-targeting siRNA, 50 nM compound): no effect on either | exon 2-3 cleavage under hRRP6 knock-down [1, 6]: no effect | intron 1 decay under hRRP6 knock-down [1, 6]: ablation of intron 1 decay | degradation of the transcript under RNase L and hRRP6 knock-down together ([1]; both siRNAs, compound co-treatment): comparable to RNase L knock-down alone | cleavage of r(G4C2)8 (r(G4C2)8 [2]): significant cleavage | IC50 [3]: ~500 nM | Kd (r(G4C2)8 [4]): 3300 ± 1910 nM | toxicity [5]: no significant toxicity
